From patent US20070275984A1, “Novel Thieno-Pyridine and Thieno-Pyrimidine Derivatives and Their Use as Positive Allosteric Modulators of Mglur2-Receptors” (JANSSEN PHARMACEUTICA N.V., priority 2004, published 2007) come the findings set out here.

Where “and” joins values, the source holds several entries; their conditions need not be identical. Equal values may be shown once.

The melting point is the temperature of the solid-liquid transition.

In data set [1] the target is T1, native rat mGluR2 (Rattus norvegicus, UniProt P31421).
T1 construct: from tissue; host or cells: cerebral cortex of Sprague-Dawley rats (membrane preparation)
T1 sequence (P31421 19-872): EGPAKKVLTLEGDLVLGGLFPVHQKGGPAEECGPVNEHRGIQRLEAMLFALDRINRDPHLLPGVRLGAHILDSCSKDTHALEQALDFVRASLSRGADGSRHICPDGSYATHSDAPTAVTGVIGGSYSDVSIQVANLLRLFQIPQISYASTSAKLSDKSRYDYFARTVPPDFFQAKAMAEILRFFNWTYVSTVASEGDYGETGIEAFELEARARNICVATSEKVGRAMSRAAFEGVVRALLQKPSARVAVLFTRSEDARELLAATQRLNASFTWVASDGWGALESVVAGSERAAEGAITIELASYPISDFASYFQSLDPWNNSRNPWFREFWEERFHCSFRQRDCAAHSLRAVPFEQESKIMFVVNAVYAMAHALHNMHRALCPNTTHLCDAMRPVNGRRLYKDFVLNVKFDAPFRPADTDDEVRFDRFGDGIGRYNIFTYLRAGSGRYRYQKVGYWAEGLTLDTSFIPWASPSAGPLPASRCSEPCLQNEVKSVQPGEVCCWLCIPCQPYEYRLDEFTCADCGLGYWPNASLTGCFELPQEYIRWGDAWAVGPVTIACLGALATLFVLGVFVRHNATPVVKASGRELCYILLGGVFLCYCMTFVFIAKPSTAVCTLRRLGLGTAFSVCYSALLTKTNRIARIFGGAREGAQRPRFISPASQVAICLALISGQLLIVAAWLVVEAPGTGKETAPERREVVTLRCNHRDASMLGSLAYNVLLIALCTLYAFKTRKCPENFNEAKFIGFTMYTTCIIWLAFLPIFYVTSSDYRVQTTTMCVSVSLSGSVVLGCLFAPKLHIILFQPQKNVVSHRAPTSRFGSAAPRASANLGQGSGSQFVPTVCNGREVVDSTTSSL
Kind of data set: [35S]GTPγS binding assay using cortical rat brain membranes, potentiation of a selective mGluR2 agonist. Type of data set: biochemical. To be noted: for Activity: left-ward shift of agonist mGluR2 concentration-response curve: rat cortical membranes, selective mGluR2 agonist such as LY379268, in the presence of 3 or 10 μM of positive allosteric modulator. From the text: The [^35S]GTPγS binding is a functional membrane-based assay used to study G-protein coupled receptor (GPCR) function. This method is using a binding assay to assess the initial step in receptor-mediated G protein activation in membranes prepared from cells expressing recombinant GPCR or using membranes from discrete area of the rat brain. In brief, the assay is measuring the activation of G proteins by catalyzing the exchange of guanosine 5′-diphosphate (GDP) by guanosine 5′-triphosphate (GTP) at the α subunit. The GTP-bounded G proteins dissociate into two subunits, Gα-GTP and Gβγ, which in turn regulate intracellular enzymes and ion channels. GTP is rapidly hydrolysed by the Gα-subunit (GTPases) and the G protein is deactivated and ready for new GTP exchange cycle (Harper (1998) Curr Protoc Pharmacol 2.6.1-10, John Wiley & Sons, Inc.). [^35S]GTPγS, a non-hydrolyzed analogue of GTP, is used for this purpose.
This method is widely used to study receptor activation of G protein in membranes prepared from rat brain tissue, including mGluR2 receptors (Schaffhauser et al 2003, Pinkerton et al, 2004). mGluR2 receptors are expressed in the rat brain cortex (Mutel et al (1998) J. Neurochem. 71:2558-64; Schaffhauser et al (1998) Mol. Pharmacol. 53:228-33) and are coupled to Gαi-protein, a preferential coupling for this method.
[^35S]GTPγS binding assay using cortical rat brain membranes preparation was used and adapted from Schaffhauser et al ((2003) Mol. Pharmacol. 4:798-810) for the detection of the positive allosteric modulator properties of the compounds of this invention on native rat mGluR2. In order to eliminate the possible interference with group III Gαi-protein coupled mGluRs (mGluR4, mGluR7, mGluR8; mGluR6 is not expressed in the cortex (Laurie et al (1997) Neuropharmacol. 36:145-52)), the potentiation of the response to a selective mGluR2 agonist, such as DCG-IV (Cartmell et al. (1998) Br. J. Pharmacol. 123(3):497-504) or LY379268 (Monn et al. (1999) J. Med. Chem 42:1027-40), by compounds described in the present invention was performed.
Membrane preparation. Cortices were dissected out from brains of 200-300 g Sprague-Dawley rats (Charles River Laboratories, L'Arbresle, France). Tissues were homogenized in 6 volumes (vol/wt) of 10% sucrose at 4° C. using a glass-teflon homogenizer. The homogenate was centrifuged at 1250 g for 10 min, and the supernatant was centrifuged at 40,000 g for 20 min (4° C.). The pellet was resuspended in 25 ml water using a Polytron disrupter (Kinematica AG, Luzern, Switzerland) and centrifuged for 10 min at 3000 g. (4° C.). The supernatant was centrifuged at 40,000 g for 20 min (4° C.). The supernatant was discarded and the pellet washed twice by resuspension in 10 volumes 5 mM HEPES-KOH, pH 7.4. The homogenate was frozen and thawed twice and centrifuged at 40,000 g for 20 min. The final pellet was resuspended in 5 mM HEPES-KOH, pH 7.4 and stored at −80° C. before its use. Protein concentration was determined by the Bradford method (Bio-Rad protein assay, Reinach, Switzerland) with bovine serum albumin as standard.
[^35S]GTPγS binding assay. Measurement of mGluR2 positive allosteric modulators properties in rat cortical membranes was performed as follows: rat cortical membrane (1.5 μg) were incubated in 96-well microplates for 15 min at 30° C. in assay buffer (50 mM HEPES pH 7.4, 100 mM NaCl, 5 mM MgCl2, 10 μM GDP, 10 μg/ml saponin, EGTA 0.2 mM) with increasing concentrations of positive allosteric modulator (from 1 nM to 10 μM) and a minimal concentration of DCG-IV or LY379268, a selective mGluR2 agonist, that has been determined in previous experiments and that corresponds to the EC20, a concentration that gives 20% of the maximal response of the agonist, and is in accordance to published data (Pin et al. (1999) Eur. J. Pharmacol. 375:277-294). […]
A general note: Binding of GTPγS marks nucleotide exchange on a G protein.

For the compound `Cc1nc(NCCc2ccc(OCc3nn[nH]n3)cc2)c2cc(C)sc2n1` [Compound 46, N-(4-((2H-tetrazol-5-yl)methoxy)phenethyl)-2,6-dimethylthieno[2,3-d]pyrimidin-4-amine], the melting point was 205 °C. The “Activity: left-ward shift of agonist mGluR2 concentration-response curve” value (from here on “Activity: left-ward shift”) in data set [1] is “+++ (left-ward shift of agonist mGluR2 concentration-response curve [>3.5-fold])”.
Regarding `Cc1nc(NCCc2cccnc2)c2cc(C)sc2n1` [Compound 49, 2,6-dimethyl-N-(2-(pyridin-3-yl)ethyl)thieno[2,3-d]pyrimidin-4-amine], the melting point was 138 °C. Besides, in data set [1], the “Activity: left-ward shift” value was “+ (left-ward shift of agonist mGluR2 concentration-response curve [<2-fold])”.
In turn, `CC(=O)Nc1ccc(CCNc2nc(C)nc3sc(C)cc23)cc1` [Compound 43, N-(4-(2-(2,6-dimethylthieno[2,3-d]pyrimidin-4-ylamino)ethyl)-phenyl)acetamide] returned a melting point of 248 °C. For the same compound, the “Activity: left-ward shift” value in data set [1] is “++ (left-ward shift of agonist mGluR2 concentration-response curve [2- to 3.5-fold])”.
Turning to `Cc1nc(NCCc2ccc(N)cc2)c2cc(C)sc2n1` [Compound 42, N-(4-aminophenethyl)-2,6-dimethylthieno[2,3-d]pyrimidin-4-amine], the melting point stood at 127 °C. The “Activity: left-ward shift” value in data set [1] is “++ (left-ward shift of agonist mGluR2 concentration-response curve [2- to 3.5-fold])”.
Taken in the same sequence, the figures for `CCc1cc2c(NCCc3ccccc3)ccnc2s1` [Compound 96, 2-ethyl-N-phenethylthieno[2,3-b]pyridin-4-amine] were 88 °C and “+++ (left-ward shift of agonist mGluR2 concentration-response curve [>3.5-fold])”.
On the same counts, the results for `CCCc1cc2c(NCCc3ccccc3)ncnc2s1` [Compound 79, N-phenethyl-6-propylthieno[2,3-d]pyrimidin-4-amine] are 110.5 °C and “+++ (left-ward shift of agonist mGluR2 concentration-response curve [>3.5-fold])”.
The compound `CCCc1cc2c(NCCc3ccc(O)cc3)ncnc2s1` [Compound 82, 4-(2-(6-propylthieno[2,3-d]pyrimidin-4-ylamino)ethyl)phenol] came in with a melting point of 123.5 °C. For the same compound, the “Activity: left-ward shift” value in data set [1] is “+++ (left-ward shift of agonist mGluR2 concentration-response curve [>3.5-fold])”.
Take `COc1nc(NCCc2ccccc2)c2cc(C)sc2n1` [Compound 15, 2-methoxy-6-methyl-N-phenethylthieno[2,3-d]pyrimidin-4-amine]: the melting point came to 138.5 °C. Moreover, the “Activity: left-ward shift” value in data set [1] was “+++ (left-ward shift of agonist mGluR2 concentration-response curve [>3.5-fold])”.
Regarding `OCc1cc2c(NCCc3ccccc3)ncnc2s1` [Compound 58, (4-(phenethylamino)thieno[2,3-d]pyrimidin-6-yl)methanol], the melting point is 155 °C and 155 to 155.5 °C. In addition, the “Activity: left-ward shift” value in data set [1] was “++ (left-ward shift of agonist mGluR2 concentration-response curve [2- to 3.5-fold])”.
Take `CCc1cc2c(NCCCc3ccccc3)ncnc2s1` [Compound 75, 6-ethyl-N-(3-phenylpropyl)thieno[2,3-d]pyrimidin-4-amine]: the melting point is 124.5 °C. Further, the “Activity: left-ward shift” value in data set [1] is “++ (left-ward shift of agonist mGluR2 concentration-response curve [2- to 3.5-fold])”.
With `Cc1nc(NCc2ccccc2)c2cc(C)sc2n1` [Compound 5, N-benzyl-2,6-dimethylthieno[2,3-d]pyrimidin-4-amine], the melting point stood at 124.2 °C. Moreover, in data set [1], the “Activity: left-ward shift” value is “+ (left-ward shift of agonist mGluR2 concentration-response curve [<2-fold])”.
Compound `COc1ccc(CCNc2nc(C)nc3sc(C)cc23)cc1` [Compound 28, N-(4-methoxyphenethyl)-2,6-dimethylthieno[2,3-d]pyrimidin-4-amine] yielded a melting point of 129 °C. Besides, in data set [1] (10 μM compound together with mGluR2 agonist, compared to agonist alone, Figure B), the “increase of the [GTPi^5S] binding induced by 50 nM of DCG-IV” value is given as “significantly potentiated”. The “agonistic activity when tested in the absence of 50 nM DCG-IV” value in data set [1] (10 μM compound, compared to buffer value (0% of maximal response), Figure B) is on record as “no statistically significant agonistic activity”.
